Data reported in patent US5366983A, “Use of quaternary ammonium compounds to remove salmonella contamination from meat products” (The Board of Trustees of The University of Arkansas, priority 1992, dated 1994).
Several values for one entry are separate records, joined by “and”; a condition that tells them apart may be missing. Equal values may be shown once. Read-outs that look alike come from different tables or passages of the source.

Legend:
[1] = test system: Salmonella typhimurium ATCC 14028
Description: Salmonella typhimurium ATCC 14028 was used for these studies and prepared as follows. A 16 hour culture in nutrient broth (BBL) was centrifuged at 15,000 rpm for 10 minutes at 4° C. The deposit was washed once with 0.04 M potassium phosphate buffer (PPB) at pH 7.0 and resuspended in fresh PPB to contain 1-2×10^9 bacteria/ml. Samples (1.0 ml) of this suspension were added into a 1.8 ml Eppendorff vial and centrifuged at 14,000 rpm for 4 minutes. The pellets were first suspended in 1.0 ml of PPB or 1.0 ml of an appropriate concentration of test chemical solution, and then centrifuged and washed with the buffer under the same conditions. After washing, the samples of bacterial suspensions were appropriately diluted in PPB. Duplicate 0.05 ml samples were withdrawn and immediately added onto nutrient agar plates. Colonies were counted after 24 hours incubation at 37° C.

[2] = test system: Salmonella attachment to human buccal epithelial cells; conditions: count on treated cell / untreated cell
Description: The Salmonella suspension and the human buccal epithelial cells were prepared according to the method described in the detachment experiments of Example 1, except that only the control buccal epithelial cells were suspended in PBS and washed twice at 4500 rpm for 10 minutes. […] The exposure of the buccal epithelial cells to the Salmonella suspension and all subsequent procedures were performed according to the method described in Example 1.

[3] = test system: Salmonella typhimurium TA100; test: Salmonella reversion assay after heating at 205° C., TA100; assay type: cell-based; conditions: for Revertants/plate: heated at 205° C.
Description: Test strains TA98 and TA100 were used. Again, mutagenicities were determined both in the absence and in the presence of the mammalian liver S9 activating system.
A response that was two times that of the solvent control was considered a positive response.

[4] = test system: Salmonella typhimurium on chicken skin; test: Prevention of attachment of Salmonella on excised chicken skin (Table F5)
Description: To determine the ability of surfactants to inhibit attachment or produce detachment of Salmonella, the following experiment was conducted. A hole was bored into the bottom of a 150 ml specimen cup. Chicken skin was excised from a drum stick and then placed over the cap of the specimen cup, and then the cap was screwed on. S. typhimurium was diluted 1:5000 with PBS or a surfactant. The surfactants were diluted appropriately. The skin was then inoculated with the solution containing the S. typhimurium and the surfactant for 30 minutes at room temperature.
Following incubation, the skin was washed. The rinse water was diluted appropriately in PBS and then plated onto XLD pour plates. The S. typhimurium was counted and reported as CFU/ml. The skin was swabbed so as to remove any remaining S. typhimurium using a nitroellulose lift and the CFU's/ml on the lift were also counted.

[5] = test system: Salmonella typhimurium on chicken skin; test: Effect of surfactants on Salmonella attached to chicken skin, drumsticks (Tables F1-F4)

CCCCCCCCCCCCCCCC[n+]1ccccc1 [CPC, cetylpyridinium chloride]
bacterial viability ([1]; CPC 10 ug/ml + 0.0625% Na2-EDTA): 6.21 ± 0.75 × 10^8 CFU/ml | bacterial viability ([1]; CPC 10 ug/ml + 0.125% Na2-EDTA): 6.24 ± 0.79 × 10^8 CFU/ml | bacterial viability ([1]; CPC 10 ug/ml + 0.5% Na2-EDTA): 5.79 ± 0.1 × 10^8 CFU/ml | bacterial viability ([1]; CPC 10 ug/ml, no chelating agent): 6.08 ± 0.6 × 10^8 CFU/ml | bacterial viability ([1]; CPC 17 ug/ml + 0.125% Na2-EDTA): 1.52 ± 0.42 × 10^7 CFU/ml | bacterial viability ([1]; CPC 17 ug/ml + 0.5% Na2-EDTA): 4.8 ± 0.42 × 10^6 CFU/ml | bacterial viability ([1]; CPC 17 ug/ml, no chelating agent): 7.25 ± 0.1 × 10^7 CFU/ml | bacterial viability ([1]; CPC 20 ug/ml + 0.25% EGTA): 3.01 ± 0.44 CFU/ml | bacterial viability ([1]; CPC 20 ug/ml + 1% EGTA): 2.64 ± 0.32 CFU/ml | bacterial viability ([1]; CPC 30 ug/ml + 0.25% EGTA): 85 ± 65 CFU/ml | bacterial viability ([1]; CPC 30 ug/ml + 0.25% Na2-EDTA): 20 ± 13 CFU/ml | bacterial viability ([1]; CPC 30 ug/ml, no chelating agent): 117 ± 189 CFU/ml and 82 ± 73 CFU/ml | bacterial viability ([1]; CPC 40 ug/ml + 1% EGTA): 0 CFU/ml | bacterial viability ([1]; CPC 40 ug/ml, no chelating agent): 8 ± 14 CFU/ml | decrease in cell viability ([1]; CPC and Na2-EDTA used together): 2.5 fold | log reduction at 20 µg/mL ([1]; Salmonella enterica, read-out: decrease in CFU/ml): 1.5 | Counts/con ([2]; 2.5 mcg/mL): 62/71 | Counts/con ([2]; 5 mcg/mL): 41/71 | Counts/con ([2]; 10 mcg/mL): 26/70 and 24/74 | Counts/con ([2]; 100 mcg/mL): 30/70 and 23/74 | Revertants/plate ([3]; TA100, +S9, 0.1 μg/plate): 122 ± 3 Revertants/plate | Revertants/plate ([3]; TA100, +S9, 1.0 μg/plate): 126 ± 14 Revertants/plate | Revertants/plate ([3]; TA100, +S9, 5.0 μg/plate): 118 ± 10 Revertants/plate | Revertants/plate ([3]; TA100, +S9, 10.0 μg/plate): 123 ± 8 Revertants/plate | Revertants/plate ([3]; TA100, -S9, 0.1 μg/plate): 117 ± 6 Revertants/plate | Revertants/plate ([3]; TA100, -S9, 1.0 μg/plate): 113 ± 8 Revertants/plate | Revertants/plate ([3]; TA100, -S9, 5.0 μg/plate): 123 ± 4 Revertants/plate | Revertants/plate ([3]; TA100, -S9, 10.0 μg/plate): 126 ± 4 Revertants/plate | mutagenicity after heating in vegetable oil (in words) ([3]; TA100, absence or presence of S9, all concentrations tested): did not produce substances which are mutagenic | CFU/ml on XLD agar [4]: 20 | Nitrocellulose lift (# of colonies) ([4]; skin, 30 minutes at room temperature): 4 # of colonies | Enrichment, chicken legs out of ten ([5]; 0.1%, 4° C.): 8/10 | Rinse H2O ([5]; 0.1%, 4° C.): 0 CFU/ml | Surfactant Solution ([5]; 0.1%, 4° C.): 0 CFU/ml | Swabs, chicken legs producing the notated number of colonies ([5]; 0.1%, 4° C.): 8/10 | Swabs, colonies ([5]; 0.1%, 4° C.): + (1-10) | Wash H2O, chicken legs producing the notated number of colonies ([5]; 0.1%, 4° C.): 8/10 | Wash H2O, colonies ([5]; 0.1%, 4° C.): + (1-10) | Enrichment, chicken legs out of ten ([5]; 0.1%, 25° C.): 0/10 | Rinse H2O ([5]; 0.1%, 25° C.): 0 CFU/ml | Surfactant Solution ([5]; 0.1%, 25° C.): 0 CFU/ml | Swabs, chicken legs producing the notated number of colonies ([5]; 0.1%, 25° C.): 7/10 | Swabs, colonies ([5]; 0.1%, 25° C.): + (1-10) | Wash H2O, chicken legs producing the notated number of colonies ([5]; 0.1%, 25° C.): 8/10 | Wash H2O, colonies ([5]; 0.1%, 25° C.): ++ (11-100) | Enrichment, chicken legs out of ten ([5]; 0.5%, 4° C.): 9/10 | Rinse H2O ([5]; 0.5%, 4° C.): 0 CFU/ml | Surfactant Solution ([5]; 0.5%, 4° C.): 0 CFU/ml | Swabs, chicken legs producing the notated number of colonies ([5]; 0.5%, 4° C.): 9/10 | Swabs, colonies ([5]; 0.5%, 4° C.): + (1-10) | Wash H2O, chicken legs producing the notated number of colonies ([5]; 0.5%, 4° C.): 7/10 | Wash H2O, colonies ([5]; 0.5%, 4° C.): + (1-10) | Enrichment, chicken legs out of ten ([5]; 1.0%, 4° C.): 5/10 | Rinse H2O ([5]; 1.0%, 4° C.): 0 CFU/ml | Surfactant Solution ([5]; 1.0%, 4° C.): 0 CFU/ml | Swabs, chicken legs producing the notated number of colonies ([5]; 1.0%, 4° C.): 5/10 | Swabs, colonies ([5]; 1.0%, 4° C.): + (1-10) | Wash H2O, chicken legs producing the notated number of colonies ([5]; 1.0%, 4° C.): 9/10 | Wash H2O, colonies ([5]; 1.0%, 4° C.): + (1-10) | Enrichment, chicken legs out of ten ([5]; .01%, 25° C.): 10/10 | Rinse H2O ([5]; .01%, 25° C.): + (1-10) | Surfactant Solution ([5]; .01%, 25° C.): 0 CFU/ml | Swabs, chicken legs producing the notated number of colonies ([5]; .01%, 25° C.): 9/10 | Swabs, colonies ([5]; .01%, 25° C.): ++ (11-100) | Wash H2O, chicken legs producing the notated number of colonies ([5]; .01%, 25° C.): 10/10 | Wash H2O, colonies ([5]; .01%, 25° C.): +++ (101-300) | Enrichment, chicken legs out of ten ([5]; .05%, 25° C.): 7/10 | Rinse H2O ([5]; .05%, 25° C.): 0 CFU/ml | Surfactant Solution ([5]; .05%, 25° C.): 0 CFU/ml | Swabs, chicken legs producing the notated number of colonies ([5]; .05%, 25° C.): 9/10 | Swabs, colonies ([5]; .05%, 25° C.): + (1-10) | Wash H2O, chicken legs producing the notated number of colonies ([5]; .05%, 25° C.): 10/10 | Wash H2O, colonies ([5]; .05%, 25° C.): ++ (11-100)
